Experimental data published in ChEMBL document CHEMBL1126994, “Synthesis of myristic acid analogs with anti-HIV activity that may be resistant to metabolic processing by -oxidation” (1993).
Calls of active or inactive are those of the source. The rule behind the calls is not given here.

How the values were obtained:
[1] = target: T1, Glycylpeptide N-tetradecanoyltransferase 1 (Homo sapiens) (UniProt P30419); assay: In vitro production of Acylpeptide by human N-myristoyltransferase (NMT) assay
T1 sequence (whole entry): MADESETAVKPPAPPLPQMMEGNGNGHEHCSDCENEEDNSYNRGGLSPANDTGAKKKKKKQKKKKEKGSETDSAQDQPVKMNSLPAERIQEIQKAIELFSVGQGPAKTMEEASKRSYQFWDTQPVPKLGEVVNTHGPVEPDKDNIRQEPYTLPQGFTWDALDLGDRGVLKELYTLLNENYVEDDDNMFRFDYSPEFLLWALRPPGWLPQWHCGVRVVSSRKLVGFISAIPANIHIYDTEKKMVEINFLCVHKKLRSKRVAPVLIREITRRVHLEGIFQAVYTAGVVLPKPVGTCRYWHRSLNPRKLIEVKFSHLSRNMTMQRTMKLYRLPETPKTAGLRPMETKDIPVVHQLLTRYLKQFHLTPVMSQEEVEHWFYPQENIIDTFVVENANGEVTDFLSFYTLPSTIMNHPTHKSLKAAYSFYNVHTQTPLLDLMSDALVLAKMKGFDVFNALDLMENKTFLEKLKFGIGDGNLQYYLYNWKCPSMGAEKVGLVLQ

[2] = system: CCRF-CEM; assay: Tested for cytotoxicity against HIV-1 uninfected CEM cells; Value ranges from 80-190; format: functional; details: Homo sapiens, read-out: TD50 (the source's name)
[3] = species on record: Homo sapiens; assay: Tested in vitro for the production of acyl-CoA of compound by Acyl-CoA synthetase in human
[4] = system: Pseudomonas; assay: Tested in vitro for the production of acyl-CoA by Acyl-CoA synthetase in Pseudomonas
[5] = target: Glycylpeptide N-tetradecanoyltransferase (Saccharomyces cerevisiae) (UniProt P14743); assay: Tested in vitro for the production of Acylpeptide by yeast N-myristoyltransferase (NMT) assay
[6] = system: CCRF-CEM; assay: Tested for the antiviral activity against HIV-1 infected CEM cells; Value ranges from 1-5; format: functional; details: Homo sapiens, read-out: ID50 (the source's name)
[7] = system: CCRF-CEM; assay: Tested for the antiviral activity against HIV-1 infected CEM cells; NA means not active; format: functional, cell-based; details: Homo sapiens
[8] = system: CCRF-CEM; assay: Tested for cytotoxicity against HIV-1 uninfected CEM cells; format: functional; details: Homo sapiens, read-out: TD50 (the source's name)
[9] = system: CCRF-CEM; assay: Tested for the antiviral activity against HIV-1 infected CEM cells; format: functional; details: Homo sapiens, read-out: ID50 (the source's name)
[10] = system: CCRF-CEM; assay: Tested for the antiviral activity against HIV-1 infected CEM cells; Value ranges from 9-20; format: functional; details: Homo sapiens, read-out: ID50 (the source's name)

Chain of Glycylpeptide N-tetradecanoyltransferase (Saccharomyces cerevisiae) (P14743 whole entry, looked up): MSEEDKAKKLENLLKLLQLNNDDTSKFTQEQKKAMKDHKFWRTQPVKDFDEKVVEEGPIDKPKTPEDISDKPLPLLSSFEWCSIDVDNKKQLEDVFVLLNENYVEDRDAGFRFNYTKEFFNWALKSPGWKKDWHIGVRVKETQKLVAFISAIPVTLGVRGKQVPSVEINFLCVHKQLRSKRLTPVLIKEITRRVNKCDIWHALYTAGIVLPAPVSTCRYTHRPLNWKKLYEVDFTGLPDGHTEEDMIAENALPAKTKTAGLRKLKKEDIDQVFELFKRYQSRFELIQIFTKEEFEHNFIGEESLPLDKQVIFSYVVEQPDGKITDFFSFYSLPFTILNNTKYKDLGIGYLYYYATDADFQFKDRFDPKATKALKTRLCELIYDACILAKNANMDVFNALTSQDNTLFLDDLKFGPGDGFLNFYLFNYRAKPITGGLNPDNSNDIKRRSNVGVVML

Structure (SMILES)	Myristoylpeptide [1] [%]	CC50 [2] [µM]	MyristoylCoA [3] [%]	MyristoylCoA [4] [%]	Myristoylpeptide [5] [%]	IC50 [6] [µM]	ID50 [7]	CC50 [8] [µM]	IC50 [9] [µM]	IC50 [10] [µM]
COCCCCCCCCCCCCC(=O)O	84	80	75	175	109	1	–	–	–	–
COCCCCCCCCCCC(F)C(=O)O (centres undefined)	< 5	–	26	14	14	–	inactive	> 100	–	–
COCCCCCCCCC(O)CCC(=O)O (centres undefined)	< 5	–	–	–	107	–	–	> 400	77	–
COCCCCCCCCCC(O)CC(=O)O (centres undefined)	< 5	–	< 5	114	< 5	–	–	280	–	9
COCCCCCCCCCC(F)CC(=O)O (centres undefined)	5	–	< 5	94	< 5	1	–	300	–	–
COCCCCCCCCC/C=C/C(=O)O	5	–	12	78	7	–	–	> 80	5	–
